Data reported in US20080003569A1, “Method for the Detection of Intracellular Parameters With Luminescent Protein Probes for the Screening of Molecules Capable of Altering Said Parameters” (priority 2004, published 2008).

Columns and labels:
[1] = tested on: p66shc-aequorin (p66shc-AEQ) probe; test: Translocation of p66shc-aequorin probe to the plasmatic membrane, A431 cells; format: cell-based
Source text: This probe was obtained by inserting, in a eukaryotic expression vector (pcDNA3; 5.4 kb), the sequence encoding the p66shc protein condensed in frame with the sequence encoding aequorin.
The cells cultivated on cellular culture flasks (75 cm^2) were transfected with a vector containing the chimeric probe produced, using the most suitable transfection techniques for the cellular line in question. The stabilized transfected cellular line A431 was adopted as experimental model, using the “Effectene reagent” procedure (Qiagen, Germany), which guarantees a high percentage of positive cells for this cellular line.
24 hours after the transfection, the cells were maintained in a DMEM culture medium, without serum.
(§1) 36 hours after transfection, the cells contained in the flask were detached from the bottom by trypsinization.
The prosthetic group celentherazine was added to the suspension of cells expressing the p66shc-aequorin probe, at a final concentration of 5 μM. […]

[2] = tested on: PKC beta-aequorin (PKCβ-AEQ) probe; test: Translocation of PKC beta-aequorin probe under hyperglycaemia conditions, HUVEC cells; format: cell-based; details: 10 mM glucose plus metformin 20 μM
Source text: A beta-aequorin PKC probe, already described in example 1, was used, with which HUVEC endothelial cells were transfected. The cells cultivated on cellular culture flasks (75 cm^2) were transfected with a vector containing the chimeric probe produced, using the most suitable transfection techniques for the cellular line in question. Endothelial cells of stabilized umbilical cord veins, called HUVEC, were used as the experimental model, which were transfected with the PKC beta-aequorin probe, using lipofectamine which guarantees a high percentage of positive cells for this cellular line. 36 hours after transfection, the cells contained in the flask were detached from the bottom by trypsinization. […] The prosthetic group celentherazine at a final concentration of 5 μM was added to the cell suspension expressing the PKC beta-aequorin probe. […] The example provided was carried out on three parallel batches of cells: a) HUVEC cells expressing the PKC beta-aequorin (PKCβ-AEQ) probe, maintained under control conditions (absence of glucose) (dotted line). b) HUVEC cells expressing the PKC beta-aequorin (PKCβ-AEQ) probe, maintained under hyperglycaemia conditions (10 mM of glucose) (dark, thick line). c) HUVEC cells expressing the PKC beta-aequorin (PKCβ-AEQ) probe, maintained under hyperglycaemia conditions (10 mM of glucose) treated with a well-known anti-diabetic agent, metformin (20 μM) (dark, thin line).

[3] = tested on: beta/alpha adrenergic receptor (chimeric); test: mt-AEQ photon emission, HeLa cells expressing chimeric beta/alpha adrenergic receptor; format: cell-based; details: HeLa mt-AEQ cells with chimeric receptor, isoproterenol 100 μM; from less than 20 before stimulation
Experimental: (§2) The cellular lines thus engineered were then both transfected with the vector containing the mt-AEQ probe by means of the calcium phosphate technique.
(§3) 36 hours after the transfection, the cells, cultivated on flasks for cellular cultures (75 cm^2), were detached from the bottom by trypsinization. The cellular suspension was then transferred to a Falcon tube (of 15 or 50 ml) and subjected to centrifugation at 1200 rpm in a cell centrifuge at 20° C. and finally the cellular precipitate was re-suspended in KRB/Ca^2+ (Krebs-Ringer modified buffer: 125 mM NaCl, 5 mM KCl, 1 mM CaCl2, 1 mM Na3PO4, 1 mM MgSO4, 5.5 mM glucose, 20 mM HEPES, pH 7.4, 37° C.).
(§4) The prosthetic group celentherazine was added at a final concentration of 5 μM to the suspension of engineered cells expressing the mt-AEQ probe.
(§5) 50 μl of suspension containing transfected cells (corresponding to about 100,000 cells) were planted in each well of the plate. The cells were left to adhere for a time varying from 1 to 2 hours keeping them in the dark, due to the photo-instability of celentherazine.
(§6) At the end of the incubation time, the various molecules to be tested were added to each well and the plate with the treated cells was then put in direct contact with a photo-multiplier which measures the emission of photons on the part of aequorin. […]

beta adrenergic receptor = test: mt-AEQ photon emission, control HeLa cells expressing beta adrenergic receptor; format: cell-based; details: control HeLa cells expressing a beta adrenergic receptor, stimulated with isoproterenol
Experimental: as §3, §4, §5
(§7) At the end of the incubation time, the various molecules to be tested were added to each well and the plate with the treated cells was then put in direct contact with a photo-multiplier which measures the emission of photons on the part of aequorin.
HeLa cells expressing a beta adrenergic receptor and stimulated with isoproterenol for inducing the stimulation of said receptor, were used as control (dotted line).

[4] = tested on: ORL1/alpha adrenergic receptor (chimeric); test: mt-AEQ photon emission, CHO cells expressing chimeric ORL1/alpha adrenergic receptor; format: cell-based; details: CHO mt-AEQ cells with chimeric receptor, nociceptine 1 μM; from less than 20 before stimulation
Experimental: as §2, §3, §4, §5, §6

[5] = tested on: endogenous receptor for ATP P2Y; test: mt-AEQ photon emission, CHO cells, endogenous ATP receptor; format: cell-based; details: ATP 100 μM
Experimental: as §3, §4, §5, §7

[6] = tested on: PKC-aequorin (PKC-AEQ) probe: PKC beta, delta, epsilon, zeta; test: Translocation of PKC-aequorin probe to the plasmatic membrane, HeLa cells, photon emission; format: cell-based
Source text: In the specific example, the results presented relate to the use of the PKC beta-aequorin (PCKβ-AEQ), PKC delta-aequorin (PCKδ-AEQ), PKC epsilon-aequorin (PCKε-AEQ), PKC zeta-aequorin (PCKζ-AEQ) probes.
These probes were obtained by inserting, in a eukaryotic expression vector (pcDNA3; 5.4 kb), the sequence encoding the various PKC isoforms condensed in frame with the sequence encoding aequorin described above.
The cells cultivated on cellular culture flasks (75 cm^2) were transfected with a vector containing the chimeric probe produced, using the most suitable transfection techniques for the cellular line in question. As the HeLa stabilized cellular line was used as experimental model, the calcium phosphate technique was adopted as transfection method which guarantees a high percentage of positive cells for this cellular line.
as §1
The prosthetic group celentherazine was added to the suspension of cells expressing the PKC-aequorin probe at a final concentration of 5 μM. […]

[7] = target: endogenous receptor for histamine Hi (Homo sapiens, UniProt P35367); details: HeLa mt-AEQ cells, histamine 100 μM
Chain of endogenous receptor for histamine Hi (P35367 whole entry): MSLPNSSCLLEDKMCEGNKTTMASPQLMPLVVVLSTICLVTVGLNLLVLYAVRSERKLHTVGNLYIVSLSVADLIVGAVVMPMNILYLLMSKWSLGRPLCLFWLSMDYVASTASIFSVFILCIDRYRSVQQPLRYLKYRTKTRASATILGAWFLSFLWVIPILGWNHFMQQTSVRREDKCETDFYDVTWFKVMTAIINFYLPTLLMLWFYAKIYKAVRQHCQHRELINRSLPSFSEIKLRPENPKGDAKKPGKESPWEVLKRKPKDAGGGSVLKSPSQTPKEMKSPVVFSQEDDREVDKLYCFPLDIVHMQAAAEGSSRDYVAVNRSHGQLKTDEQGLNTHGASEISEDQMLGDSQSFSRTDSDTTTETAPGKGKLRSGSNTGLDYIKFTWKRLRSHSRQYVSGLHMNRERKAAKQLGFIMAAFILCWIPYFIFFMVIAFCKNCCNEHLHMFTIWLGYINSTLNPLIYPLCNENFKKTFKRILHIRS
Experimental: as §2, §3, §4, §5, §6

[8] = from less than 20 before stimulation

## EGF: epidermic growth factor, maximal activator of p66shc translocation
[1]; A431 cells, absence of external calcium
  emission of photons: lower than 100 cps
[1]; A431 p66shc-AEQ cells, EGF 100 ng/ml, after addition of external calcium
  emission of photons: > 100,000 cps

## CN(C)C(=N)N=C(N)N [metformin]
[2]; HUVEC PKCβ-AEQ cells, after addition of external calcium
  emission of photons: lower than 40,000 cps
[2]; HUVEC
  inhibition of the PKCβ-AEQ probe translocation (grade): good inhibition
  translocation induced by glucose under hyperglycaemia conditions: inhibits the translocation

## CC(C)NCC(O)c1ccc(O)c(O)c1 (centres unmarked) [isoproterenol, Isoproterenol]
[3]
  emission of photons on the part of aequorin: over 80,000 photons emitted per second
Beta adrenergic receptor
  increase in cps: does not induce any increase in cps

## Nociceptine
[4]
  emission of photons on the part of aequorin: over 80,000 photons emitted per second

## Nc1ncnc2c1ncn2[C@@H]1O[C@H](COP(=O)(O)OP(=O)(O)OP(=O)(O)O)[C@@H](O)[C@H]1O [ATP]
[5]
  concentration of calcium in the mitochondrial matrix: considerable and transient increase
[5]; [8]
  emission of photons on the part of aequorin: over 80,000 photons emitted per second

## CCCCCCCCCCCCCC(=O)O[C@@H]1[C@@H](C)[C@@]2(O)[C@@H](C=C(CO)C[C@]3(O)C(=O)C(C)=C[C@@H]23)[C@@H]2C(C)(C)[C@]12OC(C)=O [PMA]
[6]; HeLa PKC-AEQ cells, PMA 1 μM, after addition of external calcium
  emission of photons: > 100,000 cps
[6]; HeLa cells, absence of external calcium
  emission of photons: lower than 100 cps

## NCCc1c[nH]cn1 [histamine, Histamine]
[7]
  concentration of calcium in the mitochondrial matrix: considerable and transient increase
[7]; [8]
  emission of photons on the part of aequorin: over 80,000 photons emitted per second
